Measurements from patent US20230181535A1, “UBIQUITIN-LIGASE INHIBITORS FOR THE TREATMENT OF CANCER” (FUNDACIÓN PROFESOR NOVOA SANTOS, priority 2020, published 2023).

Key:
breast cancer MCF7 cell = test: BrdU proliferation assay, MCF7; assay type: cell-based, human; conditions: 48 h
Protocol: (§1) For BrdU assays, 1×10^4 of indicated cells were plated per well into a 96-well plate. After 24 h, cells were treated with the indicated inhibitors for 48 h. Three independent experiments were plated with six replicates per each condition. Cells were treated with […] BrdU for 2 h. BrdU incorporation into newly synthesized DNA was measured using a cell proliferation colorimetric immunoassay kit according to the manufacturer's instructions (Roche, Switzerland). Results are expressed as mean±S.D. Results are represented as percentage of positive cells (mean±S.D) of three independent experiments.

[1] = system: Hakai-transformed MDCK cells; test: Phase-contrast cell phenotype, Hakai-MDCK; assay type: cell-based; conditions: Hakai-transformed MDCK cells (mesenchymal phenotype)
Protocol: MDCK, HEK293T, HepG2, MCF7 and ACHN cells were cultured in Dulbecco's Modified Eagles Medium (DMEM). MDCK stably expressing Hakai cells (Hakai-MDCK) were previously reported and were growth in DMEM with G418 (800 μg/ml). […] LoVo and PC-3 cells were cultured in F-12K Medium (Kaighn's Modification of Ham's F-12 Medium) and HT-29 and HCT116 cells in McCoy's 5a Medium Modified. 5637 cells were cultured in RPMI medium. All culture media were supplemented with 1% penicillin/streptomycin and 10% of heat-inactivated fetal bovine serum (FBS) at 37° C. in a humidified incubator with 5% CO2. Cells were monthly tested for mycoplasma contamination and used only for 1-3 months after defrosted. LoVo and HT29 cells were authenticated with the StemElite ID system (Promega). For phase-contrast images, culture cells were photographed with a Nikon Eclipse-TI microscope.

[2] = system: Hakai-dependent ubiquitination of the E-cadherin complex; test: Hakai-dependent ubiquitination of the E-cadherin complex (immunoprecipitation); assay type: cell-based; conditions: 293T cells transfected with Flag-Hakai, myc-E-cadherin, v-Src, HA-ubiquitin; IP anti-E-cadherin
Protocol: For immunoprecipitation experiments, 293 cells were transfected with 3 μg Src, 4 μg Flag-Hakai, and 2 μg HA-ubiquitin and 3 μg E-cadherin with Lipofectamin 2000 (Invitrogen, UK). 24 h after transfection, cells were lysed for 20 min in 1 ml of 1% Triton X-100 lysis buffer (20 mM Tris-HCl pH 7.5, 150 mM NaCl and 1% Triton X-100) containing 10 μg/ml leupeptin, 10 μg/ml aprotinin and 1 mM phenylmethanesulphonyl fluoride (PMSF), supplemented with 10 mM N-ethylmaleimide and 2.5 mM sodium orthovanadate. After centrifugation at 18.000 g for 10 min, the supernatants were immunoprecipitated for 2 h with 2 μg of anti-E-cadherin antibody bound to 60 μl of protein G PLUS-Agarose beads, followed by SDS-polyacrylamide gel electrophoresis (PAGE) and western blotting with the indicated antibodies as previously reported.

[3] = system: normal epithelial MDCK cell line; test: MTT cell viability assay, MDCK; assay type: cell-based; conditions: compared with Hakai-MDCK
Protocol: (§2) For cytotoxicity assays, 1×10^4 cells were seeded per well into a 96-well plate. After 24 h cells were treated with the indicated inhibitors for 72 h and a MTT colorimetric cell viability assay was performed following manufacturer's instructions (Sigma Aldrich, St Louis, Mo.). Absorbance was measured at 570 and 630 nm using a Multiskan Plus Reader (Nanoquant Infinite M200 Tecan Trading AG, Switzerland). Dose-response curves were designed with Graph Pad Prism Software and the half-maximal inhibitory concentration (IC50) values were calculated. Represented data are the mean±SEM of at least three independent experiments with six replicates per condition.

[4] = system: non-transformed epithelial MDCK cells; test: BrdU proliferation assay, MDCK; assay type: cell-based; conditions: 48 h
Protocol: as §1

HT29 cells [5] = test: BrdU proliferation assay, HT29; assay type: cell-based, human; conditions: 48 h
Protocol: as §1

Hakai-MDCK cells = test: BrdU proliferation assay, Hakai-MDCK; assay type: cell-based; conditions: 48 h
Protocol: as §1

[6] = system: bladder cancer 5637 cells; test: BrdU proliferation assay, 5637; assay type: cell-based, human; conditions: 48 h
Protocol: as §1

HT29 cells [7] = test: Migration assay, HT29; assay type: cell-based, human; conditions: HT-29; treated 48 h
Protocol: For invasion assays, cells were treated with Hakin-1 or DMSO as vehicle for 48 h using 1% FBS during the last 24 hours. 3×10^5 MDCK, MDCK-Hakai or LoVo cells were seeded in a cell invasion chamber (Cell invasion assay kit, Chemicon International) containing medium with 2% FBS. After 72 hours for MDCK and MDCK-Hakai Invasive and 16 h for LoVo cells, invasive cells invaded that reach the lower chamber containing 30% FBS were fixed and stained with crystal violet (Sigma Aldrich, St Louis, Mo.) following the manufacturer's specifications. For migration assays, HT29 cells were cultured with Hakin-1 or DMSO as vehicle for 48 h, using medium without serum the last 24 h. In the cell migration chamber were seeded 3×10^5 HT29 cells (Cell migration kit, Millipore, Bedford, Mass.) containing medium without serum. After 16 h, migrated cells in the lower chamber containing serum with 30% FBS were stained with crystal violet and counted following the manufacturer's specifications. For both invasion and migration assays cells were counted in five fields photographed with an Olympus microscope using a 20× objective, experiments were performed in triplicates for each condition and the assays were repeated at least three times. Results are expressed as mean±SD.

[8] = system: HCT116 colon cancer cells; test: MTT cell viability assay, HCT116; assay type: cell-based, human; conditions: concentrations tested in the previous assays
Protocol: as §2

SMILES	cell proliferation (BrdU) (breast cancer MCF7 cell)	cell phenotype by phase contrast [1]	Hakai-dependent ubiquitination of E-cadherin complex [2]	sensitivity to treatment (cell viability, MTT) [3]	cell proliferation (BrdU) [4]	cell proliferation (BrdU) (HT29 cells [5])	cell proliferation (BrdU) (Hakai-MDCK cells)	cell proliferation (BrdU) [6]	cell migration (HT29 cells [7])	cytotoxic effect (cell viability, MTT) [8]
O=C(O)c1ccc(-n2nnnc2SCC(=O)c2ccc([N+](=O)[O-])cc2)cc1 [Hakin-1, 4-(5-[2-(4-nitrophenyl)-2-oxoethyl]thiol-1H-tetrazol-1-yl)benzoic acid]	inhibited cell proliferation	induction of an epithelial phenotype	reduction of Hakai-dependent ubiquitination of E-cadherin complex	more resistant	no effect was detected	reduced cell proliferation	suppress proliferation	inhibited cell proliferation	important reduction of cell migration	
O=C(O)c1ccc(-n2nnnc2SCC(O)c2ccc([N+](=O)[O-])cc2)cc1 (stereo not shown) [MKH1]										no cytotoxic effect
